The record followed here is ChEMBL document CHEMBL5113458, “Structure-activity relationships of 2-pyrimidinecarbohydrazides as utrophin modulators for the potential treatment of Duchenne muscular dystrophy” (Bioorg Med Chem, 2022).

Structures are written as SMILES. Converted amounts (≈) assume the structure as drawn.

One series addresses Utrophin (Mus musculus) (UniProt E9Q6R7). Kind of series: Modulation of mouse Utrophin in mouse H2K mdx cells assessed as fold increase in utrophin protein level at 0.1 to 10 uM incubated for 24 hrs by Western blot analysis. The class given is cell-based. As to conditions: filed as modulator, dose 0.1-10 µM. For orientation: A western blot detects proteins with antibodies after separation by electrophoresis.

Series [1] is described as follows: Metabolic stability in mouse liver microsomes assessed as intrinsic clearance per mg protein. As to conditions: read-out: CLH. The class given is ADME, Microsome. In general terms: Liver microsomes are vesicles of endoplasmic reticulum, rich in cytochrome P450 enzymes.
Series [2] in a line: Metabolic stability in mouse liver microsomes assessed as half life. In kind it is ADME, Microsome.
A short description of series [3]: Semi-thermodynamic solubility of compound at pH 7.4. In kind it is physicochemical. As to conditions: buffer, read-out: Therm_solubility.
The nature of series [4]: Metabolic stability in mouse hepatocytes assessed as half life. The class given is ADME, cell-based, Hepatocyte.
Series [5] can be described thus: Metabolic stability in mouse hepatocytes assessed as intrinsic clearance per 10^6 cells. In kind it is ADME, cell-based, Hepatocyte. The note with it: read-out: CLH.

As a reminder, the half-life is the time needed for the level to fall by half in the phase considered.

Utrophin (Mus musculus), sequence (E9Q6R7 as listed by the source): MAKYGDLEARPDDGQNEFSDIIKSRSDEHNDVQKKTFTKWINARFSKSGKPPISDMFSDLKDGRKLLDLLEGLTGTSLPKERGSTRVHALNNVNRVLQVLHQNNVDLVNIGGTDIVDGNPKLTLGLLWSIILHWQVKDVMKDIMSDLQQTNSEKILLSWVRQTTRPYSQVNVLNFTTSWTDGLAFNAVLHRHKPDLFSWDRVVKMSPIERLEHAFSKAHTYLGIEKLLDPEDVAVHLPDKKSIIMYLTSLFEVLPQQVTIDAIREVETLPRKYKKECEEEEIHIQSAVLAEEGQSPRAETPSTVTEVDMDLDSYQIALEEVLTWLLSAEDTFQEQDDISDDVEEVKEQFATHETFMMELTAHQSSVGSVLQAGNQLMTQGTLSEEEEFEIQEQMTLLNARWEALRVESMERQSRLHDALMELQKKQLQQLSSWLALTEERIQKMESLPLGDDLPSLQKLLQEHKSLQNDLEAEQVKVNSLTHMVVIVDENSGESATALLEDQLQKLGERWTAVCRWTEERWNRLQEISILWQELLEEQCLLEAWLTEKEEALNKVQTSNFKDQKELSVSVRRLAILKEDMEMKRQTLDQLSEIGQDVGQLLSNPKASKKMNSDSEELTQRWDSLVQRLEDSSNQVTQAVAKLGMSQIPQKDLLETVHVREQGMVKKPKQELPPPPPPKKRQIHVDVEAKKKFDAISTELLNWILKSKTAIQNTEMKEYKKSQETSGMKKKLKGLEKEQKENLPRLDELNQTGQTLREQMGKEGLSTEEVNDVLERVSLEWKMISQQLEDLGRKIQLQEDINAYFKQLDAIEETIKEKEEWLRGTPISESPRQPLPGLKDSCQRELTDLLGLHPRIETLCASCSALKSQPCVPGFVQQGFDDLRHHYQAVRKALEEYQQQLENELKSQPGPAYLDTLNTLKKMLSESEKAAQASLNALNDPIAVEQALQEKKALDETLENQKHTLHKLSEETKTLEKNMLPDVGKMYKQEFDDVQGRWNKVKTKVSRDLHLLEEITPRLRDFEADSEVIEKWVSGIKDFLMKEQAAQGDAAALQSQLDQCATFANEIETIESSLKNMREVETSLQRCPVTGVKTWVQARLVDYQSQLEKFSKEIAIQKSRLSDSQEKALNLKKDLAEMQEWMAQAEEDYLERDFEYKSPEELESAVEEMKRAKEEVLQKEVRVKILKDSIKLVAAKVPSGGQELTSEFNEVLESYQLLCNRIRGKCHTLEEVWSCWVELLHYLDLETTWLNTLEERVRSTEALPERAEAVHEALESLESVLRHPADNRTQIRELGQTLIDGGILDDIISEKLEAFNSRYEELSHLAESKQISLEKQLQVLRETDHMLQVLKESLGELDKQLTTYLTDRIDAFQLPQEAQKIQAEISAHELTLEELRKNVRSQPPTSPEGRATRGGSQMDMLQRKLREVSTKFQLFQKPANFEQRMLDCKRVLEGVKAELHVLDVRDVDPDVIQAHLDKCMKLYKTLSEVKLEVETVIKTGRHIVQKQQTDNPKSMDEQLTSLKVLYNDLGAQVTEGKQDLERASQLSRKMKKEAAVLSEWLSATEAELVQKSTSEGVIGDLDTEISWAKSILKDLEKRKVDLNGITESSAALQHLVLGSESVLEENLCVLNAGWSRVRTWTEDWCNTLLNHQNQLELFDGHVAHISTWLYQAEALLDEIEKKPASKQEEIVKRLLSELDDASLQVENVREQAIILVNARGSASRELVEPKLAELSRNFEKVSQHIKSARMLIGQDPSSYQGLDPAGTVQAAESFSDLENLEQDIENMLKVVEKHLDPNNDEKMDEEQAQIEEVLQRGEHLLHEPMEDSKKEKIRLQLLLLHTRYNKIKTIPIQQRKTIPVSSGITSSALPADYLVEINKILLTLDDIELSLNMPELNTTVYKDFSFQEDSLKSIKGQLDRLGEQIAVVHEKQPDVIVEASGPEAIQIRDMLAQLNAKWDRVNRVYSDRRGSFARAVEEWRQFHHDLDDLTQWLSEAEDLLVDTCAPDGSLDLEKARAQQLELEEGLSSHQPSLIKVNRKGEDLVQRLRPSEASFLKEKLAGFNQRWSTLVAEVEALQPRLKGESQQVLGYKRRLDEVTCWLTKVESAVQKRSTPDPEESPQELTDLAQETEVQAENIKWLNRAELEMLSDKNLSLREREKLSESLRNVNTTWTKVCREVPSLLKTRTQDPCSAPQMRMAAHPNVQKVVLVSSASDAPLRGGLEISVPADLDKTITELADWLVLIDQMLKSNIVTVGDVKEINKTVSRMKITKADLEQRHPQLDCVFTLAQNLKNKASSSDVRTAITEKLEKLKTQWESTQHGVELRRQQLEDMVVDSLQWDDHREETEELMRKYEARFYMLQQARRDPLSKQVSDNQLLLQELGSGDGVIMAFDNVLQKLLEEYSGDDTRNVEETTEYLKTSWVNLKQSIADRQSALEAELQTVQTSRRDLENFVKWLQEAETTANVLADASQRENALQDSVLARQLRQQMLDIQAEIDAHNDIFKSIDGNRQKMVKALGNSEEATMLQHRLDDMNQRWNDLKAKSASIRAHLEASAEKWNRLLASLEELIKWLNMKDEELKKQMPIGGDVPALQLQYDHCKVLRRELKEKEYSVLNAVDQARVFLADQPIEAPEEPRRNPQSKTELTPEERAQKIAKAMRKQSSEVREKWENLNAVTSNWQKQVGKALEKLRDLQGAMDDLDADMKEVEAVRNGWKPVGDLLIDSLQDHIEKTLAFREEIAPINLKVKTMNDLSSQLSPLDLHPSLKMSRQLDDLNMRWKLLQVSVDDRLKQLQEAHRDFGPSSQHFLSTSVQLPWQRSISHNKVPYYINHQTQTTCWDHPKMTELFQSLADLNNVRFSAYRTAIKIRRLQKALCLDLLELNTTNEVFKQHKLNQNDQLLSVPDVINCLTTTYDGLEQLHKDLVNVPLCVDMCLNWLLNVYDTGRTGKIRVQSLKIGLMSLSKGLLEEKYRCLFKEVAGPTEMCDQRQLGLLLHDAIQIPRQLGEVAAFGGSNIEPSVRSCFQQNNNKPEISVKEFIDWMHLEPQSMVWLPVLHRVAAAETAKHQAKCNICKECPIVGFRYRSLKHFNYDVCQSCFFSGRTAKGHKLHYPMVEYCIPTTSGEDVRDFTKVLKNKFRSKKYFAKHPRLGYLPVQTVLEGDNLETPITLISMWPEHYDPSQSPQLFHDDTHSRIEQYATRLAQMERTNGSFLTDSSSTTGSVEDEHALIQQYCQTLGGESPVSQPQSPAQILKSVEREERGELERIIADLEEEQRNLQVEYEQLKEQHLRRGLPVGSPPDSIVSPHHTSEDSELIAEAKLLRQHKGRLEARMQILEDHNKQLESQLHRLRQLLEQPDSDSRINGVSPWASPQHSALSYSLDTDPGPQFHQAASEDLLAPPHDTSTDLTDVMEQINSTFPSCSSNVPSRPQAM

Consider `NNC(=O)c1nc(-c2ccccc2)cc(-c2ccc(C(F)(F)F)nc2)n1`, for which the FC at Utrophin (Mus musculus) was 2.5. Moreover, the microsomal CLint in series [1] was determined as 1.53 µL/min/mg. Besides, the half-life was 7.57 h in series [2] and 1.77 h in series [4]. In addition, in series [3], the solubility thermodynamic came to 200 µM (≈ 71.9 µg/mL). Further, in series [5], the hepatocyte CLint is 13 µL/min/1e6 cells.
